Molecules are shown by their SMILES.

For the assay, the target named is T1, ERα (Homo sapiens, UniProt P03372).
T1 construct: host or cells: MCF7
T1 sequence (P03372 1-595): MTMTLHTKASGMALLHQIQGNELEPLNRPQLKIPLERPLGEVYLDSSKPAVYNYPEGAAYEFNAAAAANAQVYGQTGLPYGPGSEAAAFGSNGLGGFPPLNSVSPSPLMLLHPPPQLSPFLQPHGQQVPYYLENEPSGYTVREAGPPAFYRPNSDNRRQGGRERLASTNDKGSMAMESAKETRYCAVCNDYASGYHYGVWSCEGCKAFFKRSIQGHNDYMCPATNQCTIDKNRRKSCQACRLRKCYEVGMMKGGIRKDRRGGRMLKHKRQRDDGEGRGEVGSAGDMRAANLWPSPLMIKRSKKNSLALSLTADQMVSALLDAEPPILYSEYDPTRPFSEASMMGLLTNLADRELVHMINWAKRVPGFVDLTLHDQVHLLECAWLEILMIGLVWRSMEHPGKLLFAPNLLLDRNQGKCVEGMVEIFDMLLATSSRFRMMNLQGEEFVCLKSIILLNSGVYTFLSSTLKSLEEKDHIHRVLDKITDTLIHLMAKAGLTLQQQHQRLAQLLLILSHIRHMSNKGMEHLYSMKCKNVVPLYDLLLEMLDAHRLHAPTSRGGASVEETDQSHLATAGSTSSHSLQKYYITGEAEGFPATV
The experiment in a line: Estrogen receptor degradation activity: breast cancer cell ERα in cell western assay (MCF7 cells). It is filed as cell-based. As to conditions: for % Degradation At 0.3 μM: 4 hours, relative to fulvestrant 0.1 μM positive control; for DC50: 4 hours post compound addition, concentration which degrades 50% of the estrogen receptor, read-out: Degradation IC50. On the procedure: Test: Estrogen Receptor Degradation Activity Said test involves measuring the in vitro degradation activity of the compounds of the Table 1a. The measurements of the degradation activities were made using a breast cancer cell ERα in cell western assay as described hereunder. MCF7 cells (ATCC) were seeded in 384 wells microplate (collagen coated) at a concentration of 10000 cells/30 μL per well in red phenol free MEM alpha medium (invitrogen) containing 5% charcoal dextran striped FBS. The following day, 9 points serial 1:5 dilution of each compound was added to the cells in 2.5 μL at final concentrations ranging from […] (in table 2), or 0.1 μM for fulvestrant (using as positive control). At 4 hours post compound addition the cells were fixed by adding 25 μL of formalin (final concentration 5% formalin containing 0.1% triton) for 10 minutes at room temperature and then washed twice with PBS. Then, 50 μL of LI-COR blocking buffer containing 0.1% Triton was added to plate for 30 minutes at room temperature. LI-COR blocking buffer was removed and cells were incubated overnight at cold room with 50 μL anti-ER rabbit monoclonal antibody (Thermo scientific MA1-39540) diluted at 1:1000 in LI-COR blocking buffer containing 0.1% tween-20. Wells which were treated with blocking buffer but no antibody were used as background control. Wells were washed twice with PBS (0.1% tween-20) and incubated at 37° C. for 60 minutes in LI-COR (0.1% tween-20) containing goat anti-rabbit antibody Alexa 488 (1:1000) and Syto-64 a DNA dye (2 μM final concentration). Cells were then washed 3 times in PBS and scanned in ACUMEN explorer (TTP-Labtech). Integrated intensities in the green fluorescence and red fluorescence were measured to determine the levels of ERα and DNA respectively. The degradation activity with respect to estrogen receptors in this test is given by the concentration which degrades 50% of the estrogen receptor (or IC50) in nM. […] DMSO−fulvestrant)).

On to `O=C(O)c1ccc2c(c1)CCCC(c1ccc(F)cc1C(F)(F)F)=C2c1ccc(C=C2CN(CCC(F)(F)F)C2)cc1` [Example 108, 8-(4-fluoro-2-(trifluoromethyl)phenyl)-9-(4-((1-(3,3,3-trifluoropropyl)azetidin-3-ylidene)methyl)phenyl)-6,7-dihydro-5H-benzo[7]annulene-3-carboxylic acid], for which the “% Degradation At 0.3 μM” value is on record as 92% and the DC50 was found to be 1.2 nM.

Regarding `O=C(O)c1ccc2c(c1)CCCC(c1ccc(C3CC3)cc1C(F)(F)F)=C2c1ccc(C=C2CN(CCCF)C2)cc1` [Example 141, 8-(4-cyclopropyl-2-(trifluoromethyl)phenyl)-9-(4-((1-(3-fluoropropyl)azetidin-3-ylidene)methyl)phenyl)-6,7-dihydro-5H-benzo[7]annulene-3-carboxylic acid], the “% Degradation At 0.3 μM” value turned out to be 88% and the DC50 came to 0.4 nM.

As for `Cc1cccc(C)c1C1=C(c2ccc(C=C3CN(CCCF)C3)cc2)c2ccc(C(=O)O)cc2CCC1` [Example 97, 8-(2,6-dimethylphenyl)-9-(4-((1-(3-fluoropropyl)azetidin-3-ylidene)methyl)phenyl)-6,7-dihydro-5H-benzo[7]annulene-3-carboxylic acid], the “% Degradation At 0.3 μM” value came to 95% and the DC50 worked out at 0.2 nM.

With `O=C(O)c1ccc2c(c1)CCCC(c1ccc(C(F)(F)F)cc1Cl)=C2c1ccc(C=C2CN(CCCF)C2)cc1` [Example 50, 8-(2-chloro-4-(trifluoromethyl)phenyl)-9-(4-((1-(3-fluoropropyl)azetidin-3-ylidene)methyl)phenyl)-6,7-dihydro-5H-benzo[7]annulene-3-carboxylic acid], the “% Degradation At 0.3 μM” value was 93% and the DC50 is 0.1 nM.

For the molecule `Cc1cccc(C2=C(c3ccc(C=C4CN(CCC(F)F)C4)cc3)c3ccc(C(=O)O)cc3CCC2)c1C(F)(F)F` [Example 116, 9-(4-((1-(3,3-difluoropropyl)azetidin-3-ylidene)methyl)phenyl)-8-(3-methyl-2-(trifluoromethyl)phenyl)-6,7-dihydro-5H-benzo[7]annulene-3-carboxylic acid], the “% Degradation At 0.3 μM” value was 90% and the DC50 was 0.7 nM.

Consider `Cl.O=C(O)c1ccc2c(c1)CCCC(c1ccc(Cl)cc1Cl)=C2c1cc(F)c(C=C2CN(CCCF)C2)c(F)c1` [Example 105, 8-(2,4-dichlorophenyl)-9-(3,5-difluoro-4-((1-(3-fluoropropyl)azetidin-3-ylidene)methyl)phenyl)-6,7-dihydro-5H-benzo[7]annulene-3-carboxylic acid], for which the “% Degradation At 0.3 μM” value is listed as 94% and the DC50 amounted to 0.1 nM.

Regarding `Cc1c(C2=C(c3ccc(C=C4CN(CCC(F)(F)F)C4)cc3)c3ccc(C(=O)O)cc3CCC2)ccc(F)c1F` [Example 112, 8-(3,4-difluoro-2-methylphenyl)-9-(4-((1-(3,3,3-trifluoropropyl)azetidin-3-ylidene)methyl)phenyl)-6,7-dihydro-5H-benzo[7]annulene-3-carboxylic acid], the “% Degradation At 0.3 μM” value is listed as 100% and the DC50 came out at 27.8 nM.

For `Cl.O=C(O)c1ccc2c(c1)SCCC(c1ccc(Cl)cc1Cl)=C2c1ccc(C=C2CN(CCCF)C2)cc1` [Example 115, 4-(2,4-dichlorophenyl)-5-[4-[[1-(3-fluoropropyl)azetidin-3-ylidene]methyl]phenyl]-2,3-dihydro-1-benzothiepine-8-carboxylic acid; hydrochloride], the “% Degradation At 0.3 μM” value was determined as 100% and the DC50 turned out to be 120 nM.

Regarding `Cc1cc(C(F)(F)F)ccc1C1=C(c2ccc(C=C3CN(CCC(F)(F)F)C3)cc2)c2ccc(C(=O)O)cc2CCC1` [Example 113, 8-(2-methyl-4-(trifluoromethyl)phenyl)-9-(4-((1-(3,3,3-trifluoropropyl)azetidin-3-ylidene)methyl)phenyl)-6,7-dihydro-5H-benzo[7]annulene-3-carboxylic acid], the “% Degradation At 0.3 μM” value was found to be 90% and the DC50 came out at 0.3 nM.

On to `Cc1c(Cl)cccc1C1=C(c2ccc(C=C3CN(CCCF)C3)cc2)c2ccc(C(=O)O)cc2CCC1` [Example 72, 8-(3-chloro-2-methylphenyl)-9-(4-((1-(3-fluoropropyl)azetidin-3-ylidene)methyl)phenyl)-6,7-dihydro-5H-benzo[7]annulene-3-carboxylic acid], for which the “% Degradation At 0.3 μM” value turned out to be 97% and the DC50 is 0.3 nM.

With `O=C(O)c1ccc2c(c1)CCCC(c1cccc(F)c1C(F)(F)F)=C2c1ccc(C=C2CN(CCCF)C2)cc1` [Example 24, 8-(3-fluoro-2-(trifluoromethyl)phenyl)-9-(4-((1-(3-fluoropropyl)azetidin-3-ylidene)methyl)phenyl)-6,7-dihydro-5H-benzo[7]annulene-3-carboxylic acid], the “% Degradation At 0.3 μM” value is 95% and the DC50 was found to be 0.2 nM.

Turning to `Cc1cc(C=C2CN(CCCF)C2)c(F)cc1C1=C(c2ccc(F)cc2F)CCCc2cc(C(=O)O)ccc21.Cl` [Example 15, 8-(2,4-difluorophenyl)-9-(5-fluoro-4-((1-(3-fluoropropyl)azetidin-3-ylidene)methyl)-2-methylphenyl)-6,7-dihydro-5H-benzo[7]annulene-3-carboxylic acid hydrochloride], the “% Degradation At 0.3 μM” value came out at 87% and the DC50 was found to be 0.6 nM.

As to `O=C(O)c1ccc2c(c1)CCCC(c1ccc(F)c3c1CCC3)=C2c1ccc(C=C2CN(CCC(F)F)C2)cc1` [Example 165, 9-(4-((1-(3,3-difluoropropyl)azetidin-3-ylidene)methyl)phenyl)-8-(7-fluoro-2,3-dihydro-1H-inden-4-yl)-6,7-dihydro-5H-benzo[7]annulene-3-carboxylic acid], the “% Degradation At 0.3 μM” value was 96% and the DC50 is 1.9 nM.

In the case of `O=C(O)c1ccc2c(c1)CCCC(c1ccc(Cl)cc1Cl)=C2c1ccc(C=C2CN(CCCF)C2)cn1` [Example 159, 8-(2,4-Dichlorophenyl)-9-(5-((1-(3-fluoropropyl)azetidin-3-ylidene)methyl)pyridin-2-yl)-6,7-dihydro-5H-benzo[7]annulene-3-carboxylic acid], the “% Degradation At 0.3 μM” value turned out to be 97% and the DC50 was determined as 20.4 nM.

Consider `Cc1c(F)ccc(C2=C(c3ccc(C=C4CN(CCC(F)F)C4)cc3)c3ccc(C(=O)O)cc3CCC2)c1C` [Example 130, 9-(4-((1-(3,3-difluoropropyl)azetidin-3-ylidene)methyl)phenyl)-8-(4-fluoro-2,3-dimethylphenyl)-6,7-dihydro-5H-benzo[7]annulene-3-carboxylic acid], for which the “% Degradation At 0.3 μM” value is reported as 96% and the DC50 was 1.6 nM.

With `Cl.O=C(O)c1ccc2c(c1)CCCC(c1ccc(C(F)(F)F)cc1)=C2c1ccc(C=C2CN(CCCF)C2)cc1` [Example 185, 9-(4-((1-(3-fluoropropyl)azetidin-3-ylidene)methyl)phenyl)-8-(4-(trifluoromethyl)phenyl)-6,7-dihydro-5H-benzo[7]annulene-3-carboxylic acid hydrochloride], the “% Degradation At 0.3 μM” value was 90% and the DC50 turned out to be 0.5 nM.

For the molecule `O=C(O)c1ccc2c(c1)CCCC([C@H]1C[C@@H]1c1ccccc1)=C2c1ccc(C=C2CN(CCCF)C2)cc1` (racemic) [Example 173, 9-(4-((1-(3-fluoropropyl)azetidin-3-ylidene)methyl)phenyl)-8-((trans)-2-phenylcyclopropyl)-6,7-dihydro-5H-benzo[7]annulene-3-carboxylic acid], the “% Degradation At 0.3 μM” value worked out at 90% and the DC50 amounted to 0.7 nM.

Consider `Cc1cc(F)ccc1C1=C(c2cc(F)c(C=C3CN(CCCF)C3)cc2F)c2ccc(C(=O)O)cc2CCC1.Cl` [Example 65, 9-(2,5-difluoro-4-((1-(3-fluoropropyl)azetidin-3-ylidene)methyl)phenyl)-8-(4-fluoro-2-methylphenyl)-6,7-dihydro-5H-benzo[7]annulene-3-carboxylic acid hydrochloride], for which the “% Degradation At 0.3 μM” value was 95% and the DC50 stood at 0.3 nM.

The values above are taken from patent US12612360B2 (Sanofi, priority 2020, dated 2026).
